Test results from patent US12551472B2, “Compositions and methods using trigonelline to produce intracellular nicotinamide adenine dinucleotide (NAD+) for treating or preventing physiological disorders or states” (SOCIETE DES PRODUITS NESTLE S.A., priority 2019, dated 2026).

Legend:
[1] = system: Human Skeletal Muscle Myotubes (HSMM); assay: Colorimetric NAD+ quantification in differentiated human primary myoblasts; format: cell-based; conditions: 16 h, different doses (FIG. 4)
Description: After one day, the differentiation is induced by a medium change for 4 days. Cells were treated with synthetic trigonelline monohydrate (FIG. 4A) or with Fenugreek seed extract enriched in trigonelline containing 40.45% trigonelline (FIG. 4B) for 16 h at difference doses. NAD^+ was measured using colorimetric NAD^+ quantification assay (Biovision NAD^+/NADH Quantitation Colorimetric Kit #k337-100).

C57BL/6JRj male mice = assay: Enzymatic NAD+ measurement in mouse liver after oral gavage; format: in vivo; conditions: equimolar of 300 mg/kg trigonelline, 120 minutes (FIG. 5)
Description: 10 weeks C57BL/6JRj male mice received trigonelline (sigma #T5509) or fenugreek seed extract enriched in trigonelline (40.45% trigonelline) by oral gavage (equimolar of 300 mg/kg trigonelline, n=8/group). After 120 minutes treatment, the liver was harvested and flash frozen in liquid nitrogen. NAD^+ was measured in liver using an enzymatic method adapted from Dall, M., et al., Mol Cell Endocrinol, 2018. 473: p. 245-256.

[2] = system: Human Skeletal Muscle Myotubes (HSMM); conditions: 500 μM, 6 h, relative to control, LC-MS (FIG. 2A)
Description: Human primary myoblasts from two different donors were seeded in 6 well plates at a density of 200′000 cells per well in skeletal muscle growth medium (SKM-M, AMSbio). After one day, the differentiation was induced by a medium change for 4 days using differentiation culture medium (Gibco No. 31330-028). Cells were treated with isotopically labelled trigonelline (^13C carbonyl; 3^2H on methyl) for 6 h.
Cell extracts were separated on a Vanquish UHPLC+focused LC system (Thermo Scientific) with a hydrophilic liquid chromatography (HILIC) iHILIC-Fusion(P) column (Hilicon) carrying the dimensions 150×2.1 mm, 5 μm and a guard column (iHILIC-fusion(P), Hilicon) in front. The separation of metabolites was achieved by applying a linear solvent gradient in normal phase at 0.25 mL/min flow rate and 35° C. of temperature.
The eluting metabolites were analyzed with an Orbitrap Fusion Lumos mass spectrometer (Thermo Scientific) with a heated electrospray ionization (H-ESI) source in positive and negative mode at a resolution of 60,000 at m/z of 200. Instrument control and data analysis were conducted using Xcalibur (Thermo Scientific).

[3] = system: RW1596 (myo-3p::GFP) worms; conditions: 1 mM trigonelline chloride, 11 day old worms vs age matched control
Description: RW1596 (myo-3p::GFP) worms were collected at Day 1 (young adults) and at Day 11 (aged animals) for muscle integrity assessment. Worms were immobilized with tetramisole and analyzed by confocal microscopy, to assess the muscle fibers morphology shown by GFP fluorescence imaging. Trigonelline treatment with 1 mM trigonelline chloride and experimental measurements were started at Day 1 of wild type N2 worm adulthood, in a regimen of chronic exposure till experiments termination.

C. elegans [4] = conditions: 1 mM trigonelline chloride, day 8 old worms, vs control (FIG. 8)
Description: Absolute quantification of the mtDNA copy number in wild type N2 worms was performed by real-time PCR. Relative values for nduo-1, and act-1 were compared within each sample to generate a ratio representing the relative level of mitochondrial DNA per nuclear genome. The average of at least two technical repeats was used for each biological data point. Each experiment was performed on at least ten independent biological samples (individual worms). Trigonelline treatment with 1 mM trigonelline chloride and experimental measurements were started at Day 1 of wild type N2 worm adulthood, in a regimen of chronic exposure till experiments termination.

C. elegans [5] = conditions: 1 mM, chronic exposure from Day 1 adulthood, wild type N2 (FIG. 7A)
Description: Worm lifespan tests were performed using about 100 animals per condition and scored manually every other day. Trigonelline treatment and experimental measurements were started at Day 1 of wild type N2 worm adulthood, in a regimen of chronic exposure till experiments termination.

C. elegans [6] = system: C. elegans
Description: C. elegans mobility test was performed using the Movement Tracker software (Mouchiroud, L. et al. Curr Protoc Neurosci 77, 8.37.1-8.37.21 (2016)). The experiments were repeated at least twice. Trigonelline treatment and experimental measurements were started at Day 1 of wild type N2 worm adulthood, in a regimen of chronic exposure till experiments termination.

C. elegans [7] = conditions: 1 mM, day 8 and day 11 old worms, vs control (FIG. 7D)
Description: 45 to 60 worms per condition were manually scored for mobility after poking. Worms that were unable to respond to any repeated stimulation were scored as dead. […] Trigonelline treatment and experimental measurements were started at Day 1 of wild type N2 worm adulthood, in a regimen of chronic exposure til experiments termination.

With `C[n+]1cccc(C(=O)O)c1.[OH-]` [chemically synthesized trigonelline] the “NAD+ content compared to the control” value [1] was “significant increase” and the “NAD+ content in the liver compared to the control” value (C57BL/6JRj male mice) was “significant increase”.
`C[n+]1cccc(C(=O)[O-])c1` [trigonelline, 1-methylpyridin-1-ium-3-carboxylate] was tested, and the “NAD+ levels” value [2] was “enhancement”, the “Myofibrillar structure (GFP-tagged myosin)” value [3] was “improved more organized myofibrillar structure” and the “Mitochondrial expression relative to nuclear expression (nduo-1/act-1, mt/nDNA)” value (C. elegans [4]) was “higher”.
With `C[n+]1cccc(C(=O)O)c1` [trigonelline chloride] the Increase in lifespan (C. elegans [5]) was 21%, the “Distance travelled in advanced aging phase compared to control” value (C. elegans [6]; 1 mM (FIG. 7C)) was “significantly increased” and the “Mean speed compared to the control” value (C. elegans [6]; 1 mM, from day 1 adulthood (FIG. 7B)) was “increased”. The “Stimulated mobility score (worms responsive to a physical stimulus)” value (C. elegans [7]) was “more responsive”.
